From US20230293405A1, “Compositions Comprising UV-Filters and One or More (Bio)-Alkanediols” (Symrise AG, priority 2020, published 2023)

Tests used:
[1] = Sensory properties of oil component blended with alkanediol, assessed by untrained panelists on the backside of the hand; format: in vivo; conditions: scale 1 (low) to 5 (high absorption)
Source text: For evaluating the sensory behavior, oil components specified in the following Table 13 were blended with 1,2-heptanediol or 2,3-heptanediol or a mixture of 1,2-heptanediol and 2,3-heptanediol or 1,2-octanediol or 2,3-octanediol or a mixture of 1,2-octanediol and 2,3-octanediol (formulation) and assessed by untrained panelists in comparison to the oil component without addition of the specified alkanediols (placebo).
Test procedure: • Hands were pre-washed with liquid soap by following a defined procedure; • 30 μl of corresponding sample was applied on the backside of each hand (randomized); • After 30 s the spreading behavior of the respective formulation on skin was evaluated versus the respective oil component without 1,2-heptanediol on a scale from 1 to 5 (1=low spreading; 5=high spreading); • The samples were distributed with the fingertips of middle and forefinger with 2×5 cycles; • After 2 minutes, the fatty/greasy skin feeling was evaluated on a scale from 1 to 5 (1=low fatty/greasy skin feeling; 5=high fatty/greasy skin feeling); • Furthermore, the applicants were asked to assess the absorption, i.e. the impression of amount of remaining residue on the skin on a scale from 1 to 5 (1=low absorption; 5=high absorption).

[2] = Solubility of alkanediols in water (visual observation); conditions: assessed at ambient temperature after 24 h storage at 5° C.
Source text: The water solubility of a substance is the saturation mass concentration of the substance in water at a given temperature. The determination of the solubility in water relates to essentially pure substances which are stable in water and not volatile.
For the determination of the water solubility of an alkanediol, water and different concentrations of the respective alkanediol were blended by stirring. […] The determination of whether the alkanediol has dissolved in water is based entirely on visual observation.

[3] = in Caprylic Capric Triglyceride (neutral oil)
[4] = in Helianthus Annuus (Sunflower) Seed Oil

SMILES	Absorption/remaining residue with ([1]; in Argan Oil)	Absorption/remaining residue with ([1]; in Avocado Oil)	Absorption/remaining residue with ([1]; in Cacao butter)	Absorption/remaining residue with ([1]; in Castor Oil)	Absorption/remaining residue with ([1]; in Coconut Oil)	Absorption/remaining residue with ([1]; in Grapeseed Oil)	Absorption/remaining residue with [1, 4]	Absorption/remaining residue with ([1]; in Olive Oil)	Maximum solubility in water (% by weight) [2]	further results
CCCCCC(O)CO (stereo not shown) [1,2-heptanediol]	2.8	2.6	3.6	4	2	2.8	2	2.4	2.5 % by weight	Absorption/remaining residue with ([1]; in Butyrospermum Parkii (Shea) Butter): 2.7; Absorption/remaining residue with [1, 3]: 2.7; Absorption/remaining residue with ([1]; in Cetearyl Nonanoate (SymMollient S)): 2; Absorption/remaining residue with ([1]; in Chlorella oil (biotech)): 3; Absorption/remaining residue with ([1]; in Ethylhexyl Methoxycinnamate (Neo Heliopan AV)): 3; Absorption/remaining residue with ([1]; in Ethylhexyl Salicylate (Neo Heliopan OS)): 2.2; Absorption/remaining residue with ([1]; in Hexyldecanol (Eutanol G)): 2.7; Absorption/remaining residue with ([1]; in Homosalate (Neo Heliopan HMS)): 2.5; Absorption/remaining residue with ([1]; in Isoamyl p-Methoxycinnamate (Neo Heliopan E 1000)): 2.5; Absorption/remaining residue with ([1]; in Microalgae oil): 2.5; Absorption/remaining residue with ([1]; in Octocrylene (Neo Heliopan 303)): 2.7; Absorption/remaining residue with ([1]; in Propanediol Dicaprylate/Dicaprate (Symollient PDCC)): 2.4; Absorption/remaining residue with ([1]; in Prunus Amygdalus Dulcis (Sweet Almond) Oil): 2.2; Absorption/remaining residue with ([1]; in Simmondsia Chinensis (Jojoba) Seed Oil): 2.5
CCCCCCCC(O)CO (stereo not shown) [1,2-nonanediol]									0.1 % by weight	
CCCCCCC(O)CO (stereo not shown) [1,2-octanediol]	2.6	2.6	3		3	1.6	2	2.6		
CCCCC(O)C(C)O (stereo not shown) [2,3-heptanediol]	2.4	2.4	3.2	3.8	2.4	2.2	2.6	2	3.6 % by weight	Absorption/remaining residue with [1, 3]: 3
CCCCCCC(O)C(C)O (stereo not shown) [2,3-nonanediol]									0.3 % by weight	
CCCCCC(O)C(C)O (stereo not shown) [2,3-octanediol]	2.2	2.4	2.8	3	2.6	2.4	3.4	2.6	1.5 % by weight	
CCCCCCC(O)CO (stereo not shown) [Hydrolite ® 8, Caprylyl Glycol]									0.5 % by weight	
